Source: patent US5629298A, “Adenosine as a positive inotrop in the compromised heart” (University of Massachusetts Medical Center, priority 1995, dated 1997)
Read-outs that look alike come from different tables or passages of the source.

Tests used:
[1] = system: cultured ventricular myocytes; assay: cAMP content of cultured ventricular myocytes (125I-cAMP RIA); assay type: cell-based, rat; conditions: Rattus norvegicus, Ventricular myocyte
Method: When myocytes were to be used for biochemical studies, each of the culture dishes was preincubated for 2 hours with 1 ml of MEM containing 33 μg of laminin in a 37° C. incubator gassed with 5% CO2 in room air. The laminin solution was removed prior to myocyte seeding. After seeding, the dishes were incubated for an additional 2 hours. The settling and short term culture procedures were performed to purify the myocytes so that >95% of the myocytes adhering to the dishes were rod shaped.
Cyclic AMP levels were determined in cultures of ventricular myocytes according to the following method. After the 2-hour incubation period, the MEM was aspirated and replaced with 2 ml of fresh MEM. Adenosine agonists, ISO, or adenosine antagonists were added to the medium bathing the cells at the concentrations and times indicated. The experiment was terminated by removing the medium from the dish and adding 200 μl of 1N HCl over the cultured myocyte surface. The dishes were then frozen in liquid N2 and stored at -70° C. or held on ice momentarily until extraction was initiated.
For assay, the contents of the dishes were transferred (using 1 ml of distilled/deionized H2 O) into microcentrifuge tubes. The extracts were heated for 1 hour at 57° C. and sonicated for 10 minutes. The extracts were then centrifugated at 14,000 x g for 15 minutes. The supernatant was removed, evaporated, reconstituted in 500 μl of 50 mM sodium acetate buffer and assayed for cAMP using an ^125 I-cAMP RIA kit (Amersham). The pellet was solubilized with 0.1N NaOH and protein determined. The cAMP values are reported in pmol cAMP/mg protein of the extract pellet (total cell protein). This cAMP assay procedure routinely provided recovery values in excess of 90%.

[2] = system: myocardial membrane adenylyl cyclase; assay: Adenylyl cyclase activity of crude ventricular myocardial membranes; assay type: biochemical, rat
Method: Crude ventricular myocardial membranes were prepared according to the following procedure. Isolated rat hearts were perfused with 5 ml of ice cold saline (0.9% NaCl) to wash out the blood, minced into 2-3 mm^3 cubes, and placed in 10 ml of homogenization buffer (HB) containing 10 mM HEPES (pH 7.4), 1 mM ethylenediamine-tetraacetic acid (EDTA), 1 mM DTT and 10 μg/ml soybean trypsin inhibitor. The suspension was homogenized with a PT-10 PolytronTM generator at a speed of 6 for two 15-second periods separated by 15 seconds. The homogenized material was also treated with 2 strokes of a glass/teflon motor driven Potter-Elvehjen homogenizer operated at 1/2 full speed. Upon addition of 4.7 ml of HB containing 1.25M sucrose the homogenate was mixed and centrifugated at 1,000 x g for 15 minutes. The supernatant was filtered through 4 layers of cheesecloth and 14.5 ml HB was added. […] Membranes were assayed immediately for adenylyl cyclase activity. […] The formed [α-^32 […] separated from the [α-^32 P]dATP by sequential chromatography using columns of cation exchange resin AG 50W-X4 (200-400 mesh) and neutral alumnia AG 7 (100-200 mesh) after the methods of Salomon (Adv. Cyclic Nucleotide Res. 10:35 (1979). All results were corrected for column recovery of [^3 […] ranged between 60 and 90%. The activity of the adenylyl cyclase is expressed as pmol [α-^32 […] formed/min/mg protein.

[3] = 10 min, read-out: increase in myocyte cAMP

CC(C)NCC(O)c1ccc(O)c(O)c1 (stereo not shown) [ISO, isoproterenol]
activation at 0.1 µM ([1]; 1 min, ISO at 0.1 μM for 1 minutes, read-out: increase in myocyte cAMP over basal): 90% | activation at 1 µM ([1]; 1 min, ISO at 1 μM for 1 minutes, read-out: increase in myocyte cAMP over basal): 138%

Nc1ncnc2c1ncn2[C@@H]1O[C@H](CO)[C@@H](O)[C@H]1O [adenosine]
adenylyl cyclase activity above basal levels ([2]; adenosine at 0 to 1 mM, absence or presence of 1 μM DPCPX, myocardium membranes): did not increase

CCNC(=O)[C@H]1O[C@@H](n2cnc3c(N)nc(NCCc4ccc(CCC(=O)O)cc4)nc32)[C@H](O)[C@@H]1O [CGS-21680, 2-p-(2-carboxy-ethyl)phenethyl-amino-5'-N-ethylcarboxamido-adenosine]
adenylyl cyclase activity ([2]; homogenate of the rat heart ventricular myocardium, only at 1 MM CGS-21680): increased | activation at 1 µM [1, 3]: 77% | activation at 10 µM [1, 3]: 174% | EC50 ([1]; 10 min, read-out: EC50 for increase in myocyte cAMP): 1150 ± 370 nM
